In patent US20130165368A1, “ANTIMICROBIAL COMPOUNDS” (priority 2010, published 2013):
Converted amounts (≈) assume the structure as drawn.

Each compound was assayed on Yersinia enterocolitica (assay: MIC agar dilution, micro-organism 8 (11176)). Settings: Yersinia enterocolitica 11176; 48 hrs; read-out: MIC.
Assay type: cell-based
Description: (§1) Throughout the period of testing the microbial strains were subcultured and incubated for 18-20 hours at 37° C. on a weekly basis. Horse blood agar plates were used to sustain the micro-organisms both prior to and throughout testing. The alkoxylated alkanols listed in Table II below were obtained (these are obtainable from Sigma-Aldrich Company Ltd, Dorset, England), each having a GC purity of at least 97%.
(§2) Molar equivalent concentrations were used to allow comparison between compounds of differing molecular mass. Due to weighing difficulties, any compound in solid form was melted in a water bath prior to dilution. To make ten-times strength concentrations, which takes into account agar dilution, 0.0352 mmol of each compound was weighed into plastic universal bottles and 4 mL of sterile distilled water (SDW) was added. To produce a homogenous emulsion the universals were vortexed; once achieved the emulsions were serial diluted by adding 2 mL to 2 mL of SDW.
(§3) Myristyl alcohol and lauryl alcohol were re-weighed and dissolved in 25 μL of the polar solvent 1-methyl-2-pyrrolidone (M6762; Sigma-Aldrich) in sterile glass universals due to an inability to achieve an even suspension. To maintain an even emulsion in the presence of SDW 37.5 μL of the non-ionic detergent Tween 20 (P1379, Sigma-Aldrich) was also added. 3.9375 mL of SDW was added to these, to create a 4 mL volume; they were vortexed and diluted as before.
(§4) For every 100 mL of Isosensitest agar (IST) (CM0471; Oxoid, Basingstoke, England), 3.1 g of the IST powder was added to 100 mL SDW (as per manufacturer's instructions) and sterilised for 15 minutes at 121° C. Once sterilised, the molten agar was cooled to 50° C. in a water-bath. Subsequently 4.8 g of CCEY powder (BC2160; Bioconnections, Wetherby, England), also known as Brazier's medium, was added to 100 mL SDW for every 100 mL of agar needed. This was then sterilised for 15 minutes at 121° C. Once sterilised the molten agar was cooled to 50° C. in a water-bath and 4 mL of egg-yolk emulsion (S2073; TCS Biosciences Ltd, Buckingham, United Kingdom) and 1 mL of lysed defibrinated horse blood (HB035; TCS Biosciences Ltd, Buckingham, United Kingdom) were also added for every 100 mL needed. Horse blood lysis is achieved by dilution to half concentration with SDW; when fully lysed the mixture will turn dark red in colour.
(§5) 18 mL agar was added to each universal and then poured into sterile Petri dishes. This step creates a 1/10 dilution resulting in agar plates of the required strength. Control plates for each set of strains were created by adding 18 mL of agar to 2 mL of SDW.
(§6) Suspensions of each bacterial species were prepared with a density equal to that of a 0.5 McFarland standard using a densitometer. All suspensions were made using sterile distilled water and fresh 18-20 hour cultures. As a 0.5 McFarland standard contains 1.5×10^8 CFU/mL and the multipoint inoculators applies 1 μL spots of liquid, each bacterial suspension was diluted 1/15 (20 μL suspension to 280 μL sterile distilled water).
(§7) Bacterial suspensions were prepared from fresh 18-24 hour cultures as previously described. 1 μL of each strain was inoculated onto all 100 agar plates containing a different chemical concentration and the 2 control plates. This was done using a multipoint inoculator which inoculates 20 strains per plate. All plates were incubated for 22 hours at 37° C. in aerobic conditions.
(§8) Each plate was examined for bacterial growth after 22 and 48 hours, with each being incubated in between examinations. A positive result was recorded as growth of ≧10 colonies. A negative result was recorded as growth of <10 colonies as this is equivalent to 99.9% inhibition. The lowest concentration of chemical that inhibited growth was recorded as the MIC. The results are recorded in Table IV below, where the numbers are quoted in mmol/L.
(§9) Further experiments have also been conducted to determine the MIC of a number of other compositions as follows. […]
Work on `OCCOCCOCCCCCCCCCCCCOCCOCCO` [DEG2, 3,6,19,22-tetraoxatetracosane-1,24-diol] yielded an MIC greater than 880 µM.

Each compound was assayed on Staphylococcus aureus (MRSA) (assay: MIC agar dilution, micro-organism 12 (11939)). Settings: Staphylococcus aureus, MRSA, 48 h, Staphylococcus aureus (MRSA) 11939; 48 hrs; read-out: MIC.
Assay type: cell-based
Description: as §1, §2, §3, §4, §5, §6, §7
as §8, with “mmol/L. […]” for “mmol/L.”
`OCCOCCOCCCCCCCCCCCCOCCOCCO` [DEG2, 3,6,19,22-tetraoxatetracosane-1,24-diol] showed an MIC greater than 880 µM.

What follows are compounds tested on Providencia rettgeri (assay: MIC agar dilution, micro-organism 3 (7475)). Settings: Providencia rettgeri 7475; 48 hrs; read-out: MIC.
Assay type: cell-based
Description: as §1, §2, §3, §4, §5, §6, §7
as §8, with “mmol/L. […]” for “mmol/L.”
`OCCOCCOCCCCCCCCCCCCOCCOCCO` [DEG2, 3,6,19,22-tetraoxatetracosane-1,24-diol] showed an MIC greater than 880 µM.

Each compound was assayed on Pseudomonas aeruginosa (assay: MIC agar dilution, micro-organism 7 (10662)). Settings: Pseudomonas aeruginosa 10662; 48 hrs; read-out: MIC.
Assay type: cell-based
Description: as §1, §2, §3, §4, §5, §6, §7, §8, §9
`OCCOCCOCCCCCCCCCCCCOCCOCCO` [DEG2, 3,6,19,22-tetraoxatetracosane-1,24-diol] showed an MIC greater than 880 µM.

Each compound was assayed on Burkholderia cepacia (assay: MIC agar dilution, micro-organism 9 (1222)). Settings: Burkholderia cepacia 1222; 48 hrs; read-out: MIC.
Assay type: cell-based
Description: as §1, §2, §3, §4, §5, §6, §7, §8, §9
Work on `OCCOCCOCCCCCCCCCCCCOCCOCCO` [DEG2, 3,6,19,22-tetraoxatetracosane-1,24-diol] yielded an MIC greater than 880 µM.

The compounds below were run on Enterococcus faecalis (assay: MIC agar dilution, micro-organism 17 (775)). Settings: Enterococcus faecalis 775; 48 hrs; read-out: MIC.
Assay type: cell-based
Description: as §1, §2, §3, §4, §5, §6, §7
as §8, with “mmol/L. […]” for “mmol/L.”
Work on `OCCOCCOCCCCCCCCCCCCOCCOCCO` [DEG2, 3,6,19,22-tetraoxatetracosane-1,24-diol] yielded an MIC greater than 880 µM.

These compounds were tested on Bacillus subtilis (assay: MIC agar dilution, micro-organism 18 (9372)). Settings: Bacillus subtilis 9372; 48 hrs; read-out: MIC.
Assay type: cell-based
Description: as §1, §2, §3, §4, §5, §6, §7
as §8, with “mmol/L. […]” for “mmol/L.”
`OCCOCCOCCCCCCCCCCCCOCCOCCO` [DEG2, 3,6,19,22-tetraoxatetracosane-1,24-diol] showed an MIC greater than 880 µM.

These compounds were tested on Staphylococcus epidermidis (assay: MIC agar dilution, micro-organism 14 (11047)). Settings: Staphylococcus epidermidis 11047; 48 hrs; read-out: MIC.
Assay type: cell-based
Description: as §1, §2, §3, §4, §5, §6, §7
as §8, with “mmol/L. […]” for “mmol/L.”
With `OCCOCCOCCCCCCCCCCCCOCCOCCO` [DEG2, 3,6,19,22-tetraoxatetracosane-1,24-diol] the MIC was greater than 880 µM.

The compounds below were run on Escherichia coli (assay: MIC agar dilution, micro-organism 1 (10418)). Settings: Escherichia coli 10418; 48 hrs; read-out: MIC.
Assay type: cell-based
Description: as §1, §2, §3, §4, §5, §6, §7
as §8, with “mmol/L. […]” for “mmol/L.”
`OCCOCCOCCCCCCCCCCCCOCCOCCO` [DEG2, 3,6,19,22-tetraoxatetracosane-1,24-diol] gave an MIC greater than 880 µM.

Each compound was assayed on Candida albicans (assay: MIC agar dilution, micro-organism 19 (90028)). Settings: Candida albicans 90028; 48 hrs; read-out: MIC.
Assay type: cell-based
Description: as §1, §2, §3, §4, §5, §6, §7
as §8, with “mmol/L. […]” for “mmol/L.”
Work on `OCCOCCOCCCCCCCCCCCCOCCOCCO` [DEG2, 3,6,19,22-tetraoxatetracosane-1,24-diol] yielded an MIC greater than 880 µM.

The compounds below were run on Enterobacter cloacae (assay: MIC agar dilution, micro-organism 4 (11936)). Settings: Enterobacter cloacae 11936; 48 hrs; read-out: MIC.
Assay type: cell-based
Description: as §1, §2, §3, §4, §5, §6, §7, §8, §9
Compound `OCCOCCOCCCCCCCCCCCCOCCOCCO` [DEG2, 3,6,19,22-tetraoxatetracosane-1,24-diol] has an MIC greater than 880 µM.

What follows are compounds tested on Salmonella typhimurium (assay: MIC agar dilution, micro-organism 6 (74)). Settings: Salmonella enterica; Salmonella typhimurium 74; 48 hrs; read-out: MIC.
Assay type: cell-based
Description: as §1, §2, §3, §4, §5, §6, §7, §8, §9
`OCCOCCOCCCCCCCCCCCCOCCOCCO` [DEG2, 3,6,19,22-tetraoxatetracosane-1,24-diol] gave an MIC greater than 880 µM.

The compounds below were run on Acinetobacter baumannii (assay: MIC agar dilution, micro-organism 10 (19606)). Settings: Acinetobacter baumannii 19606; 48 hrs; read-out: MIC.
Assay type: cell-based
Description: as §1, §2, §3, §4, §5, §6, §7, §8, §9
`OCCOCCOCCCCCCCCCCCCOCCOCCO` [DEG2, 3,6,19,22-tetraoxatetracosane-1,24-diol] gave an MIC greater than 880 µM.

These compounds were tested on Enterococcus faecium (assay: MIC agar dilution, micro-organism 16 (7171)). Settings: Enterococcus faecium 7171; 48 hrs; read-out: MIC.
Assay type: cell-based
Description: as §1, §2, §3, §4, §5, §6, §7
as §8, with “mmol/L. […]” for “mmol/L.”
For `OCCOCCOCCCCCCCCCCCCOCCOCCO` [DEG2, 3,6,19,22-tetraoxatetracosane-1,24-diol], the MIC was greater than 880 µM.

Each compound was assayed on Listeria monocytogenes (assay: MIC agar dilution, micro-organism 15 (11994)). Settings: Listeria monocytogenes 11994; 48 hrs; read-out: MIC.
Assay type: cell-based
Description: as §1, §2, §3, §4, §5, §6, §7
as §8, with “mmol/L. […]” for “mmol/L.”
`OCCOCCOCCCCCCCCCCCCOCCOCCO` [DEG2, 3,6,19,22-tetraoxatetracosane-1,24-diol] gave an MIC greater than 880 µM.

Each compound was assayed on Candida glabrata (assay: MIC agar dilution, micro-organism 20 (3943)). Settings: Nakaseomyces glabratus, 48 h, Candida glabrata 3943; 48 hrs; read-out: MIC.
Assay type: cell-based
Description: as §1, §2, §3, §4, §5, §6, §7
as §8, with “mmol/L. […]” for “mmol/L.”
`OCCOCCOCCCCCCCCCCCCOCCOCCO` [DEG2, 3,6,19,22-tetraoxatetracosane-1,24-diol] gave an MIC greater than 880 µM.

What follows are compounds tested on Staphylococcus aureus (assay: MIC agar dilution, micro-organism 13 (6571)). Settings: Staphylococcus aureus, 48 h, Staphylococcus aureus 6571; 48 hrs; read-out: MIC.
Assay type: cell-based
Description: as §1, §2, §3, §4, §5, §6, §7
as §8, with “mmol/L. […]” for “mmol/L.”
`OCCOCCOCCCCCCCCCCCCOCCOCCO` [DEG2, 3,6,19,22-tetraoxatetracosane-1,24-diol] gave an MIC greater than 880 µM.

These compounds were tested on Steptococcus pyogenes (assay: MIC agar dilution, micro-organism 11 (8306)). Settings: 48 h, Steptococcus pyogenes 8306; 48 hrs; read-out: MIC.
Assay type: cell-based
Description: as §1, §2, §3, §4, §5, §6, §7
as §8, with “mmol/L. […]” for “mmol/L.”
With `OCCOCCOCCCCCCCCCCCCOCCOCCO` [DEG2, 3,6,19,22-tetraoxatetracosane-1,24-diol] the MIC was 880 µM (≈ 333 µg/mL).

What follows are compounds tested on Klebsiella pneumoniae (assay: MIC agar dilution, micro-organism 2 (9528)). Settings: Klebsiella pneumoniae 9528; 48 hrs; read-out: MIC.
Assay type: cell-based
Description: as §1, §2, §3, §4, §5, §6, §7, §8, §9
`OCCOCCOCCCCCCCCCCCCOCCOCCO` [DEG2, 3,6,19,22-tetraoxatetracosane-1,24-diol] showed an MIC of 880 µM (≈ 333 µg/mL).

These compounds were tested on Serratia marcescens (assay: MIC agar dilution, micro-organism 5 (10211)). Settings: Serratia marcescens 10211; 48 hrs; read-out: MIC.
Assay type: cell-based
Description: as §1, §2, §3, §4, §5, §6, §7, §8, §9
`OCCOCCOCCCCCCCCCCCCOCCOCCO` [DEG2, 3,6,19,22-tetraoxatetracosane-1,24-diol] gave an MIC greater than 880 µM.
